# Experimental data taken from patent US20220132839A1, “MOSQUITO ATTRACTANT COMPOSITIONS” (UNIVERSITY OF WASHINGTON, priority 2019, published 2022).
# Entries after “also recorded” stand apart in the source; their conditions may differ.
# How the values were obtained:
# Ae. aegypti AL glomeruli = experiment: Two-photon calcium imaging (PUb-GCaMP6s) of the antennal lobe, Ae. aegypti; type: in vivo; conditions: for AM2 response with increasing dose: different concentrations; for AM2 glomerulus response: odor stimulation; for effect of GABA-receptor antagonists on AM2 response to the P. obtusata scent / effect of GABA-receptor antagonists on LC2 and AM2 responses to the P. stricta scent: 1 μM CGP54626, 10 μM picrotoxin focally applied together on to the AL; for glomerular responses in the AL: imaged at 40 μm depth, particularly AL3 and LC2 glomeruli for the mixture; for AM2 response to lilac aldehyde/nonanal mixtures / LC2 response to lilac aldehyde/nonanal mixtures: lilac aldehyde and nonanal at different concentration ratios; for LC2 glomerulus response: single odorants
# Excerpt: A total of twenty preparations were used: 10 for single odorant and orchid mixture experiments; 6 for ratio experiments; and 4 for experiments using GABA-receptor antagonists. […] The expression of GCaMP occurred in glia, local interneurons, and projection neurons. […] Thus, in the calcium imaging experiments care was taken to image from the central regions of the glomeruli and avoid the sheaths and external glomerular loci. […] Relatedly, GCaMP6s expression is very high in AL local interneurons and projection neurons (PNs), such that during odor stimulation the PNs and axonal processes can often be imaged, and 3D reconstructions can be take place through simultaneous optical sections with odor stimulation. Nonetheless, the glomerular responses were assumed to be a function of multiple cell types.
# Similar to experiments with Ae. increpitus, the majority the mosquitoes were UV-glued to the stage to allow free movement of their wings and proboscis; however, for experiments using GABA-receptor antagonists the proboscis was glued to the stage for additional stability. Once the mosquito was fixed to the stage, a window in its head was cut to expose the brain, and the brain was continuously superfused with physiological saline.
# Thus a provisional atlas was created with female mosquitoes (n=6) that allowed for cross-reference of the imaged glomeruli and comparison of their positions and structures to those described in the atlas. This was accomplished via clear glomerular boundaries, especially during odor stimulation, and the distinct odorant tuning of glomeruli throughout the depths of the AL (e.g., AM2 responsive to DEET; LC2 and AL3 responsive to nonanal; PD3 responsive to geosmin; and MD2 responsive to CO2) that allowed 3D registration across preparations and subsequent warping and referencing with the atlas.
# Saline and pharmacological agents. The saline was made based on the Beyenbach and Masia recipe (L. B. Thien, F. Utech, The mode of pollination in Habenaria obtusata (Orchidaceae). American Journal of Botany 57, 1031-1035 (1970)) and contained 150.0 mM NaCl, 25.0 mM N-2-hydroxyethyl-piperazine-N′-2-ethanesulfonic acid (HEPES), 5.0 mM sucrose, 3.4 mM KCl, 1.8 mM NaHCO3, 1.7 mM CaCl2, and 1.0 mM MgCl2. The pH was adjusted to 7 with 1 M NaOH. […] […] A drip system comprising two 100 mL reservoirs—one containing the GABA receptor antagonists, and the other saline—converged on the two-channel temperature controller to facilitate rapid switching from normal physiological saline solution to the antagonists and back. Antagonists were superfused directly into the holder near to the opening of the head capsule and recorded neuropil. The odor-evoked responses were first recorded under normal physiological saline solution and then repeated under GABA receptor antagonists diluted in normal saline solution, and finally the normal saline wash. All calcium imaging data were statistically analyzed using Kruskal-Wallis tests with multiple comparisons and visualized using Principal Components Analysis. Analyses were performed in Matlab (v2017; Mathworks, Natick, Mass.).
# Olfactory stimuli were delivered to the mosquito by pulses of air diverted through a 2 mL cartridge containing a piece of filter paper bearing the odor stimulus (2 An air line provided gentle and constant charcoal-filtered air at 1 m/s to the antennae allowing continuous ventilation to prevent adaptation of the olfactory receptor cells. The stimulus output was positioned in the air line 2 cm from and orthogonal to the mosquito antennae. For testing different ratios of lilac aldehyde and nonanal, two syringes bearing different concentrations of the odorants were used and positioned such that the outputs were positioned in the same location in the air stream. […]
# Aedes mosquitoes = experiment: GC-EAD antennal responses, Aedes mosquitoes from the field
# Excerpt: (§1) Electroantennogram signals were filtered and amplified (100×; 0.1-500 Hz) using an A-M 1800 amplifier (Sequim, Wash., USA) connected to a personal computer via a BNC-2090A analog-to-digital board (National Instruments, Austin, Tex., USA) and digitized at 20 Hz using WinEDR software (Strathclyde Electrophysiology Software, Glasgow, UK). A Hum Bug noise eliminator (Quest Scientific, Vancouver, Canada) was used to decrease electrical noise. The antennal responses to peaks eluting from the GC were measured for each mosquito preparation, and each peak and mosquito species. Bioactive peaks were those that elicited strong EAD responses, corresponding to deflections beyond the average noise floor of the baseline EAD signal. Responses by each individual preparation were used for Principal Component Analysis (Ade4 package, R). The responses of eight different mosquito species were tested to the scent extracts of three orchid species (n=8 mosquito species for P. obtusata; n=4 mosquito species each for P. stricta and P. huronensis; with 3-17 replicates per mosquito species per orchid, for a total of 109 GC-EAD experiments).
# Individual mosquitoes were isolated in Falcon™ tubes (Thermo Fisher Scientific, Pittsburgh, Pa., USA) covered with a piece of fine mesh. They were maintained in a climatic chamber, as previously described, and identified immediately before running the experiment. Carbon dioxide delivered through a pad (Genesee Scientific, San Diego, Calif., USA) was used to briefly anesthetize mosquitoes before transferring them on ice for the dissection. The head was excised and the tip (i.e., one segment) of each antenna was cut off with fine scissors under a binocular microscope (Carl Zeiss, Oberkochen, Germany). The head was then mounted on an electrode composed of a silver wire 0.01″ (A-M Systems, Carlsbord, Wash., USA) and a borosilicate pulled capillary (Sutter Instrument Company, Novato, Calif., USA) filled with a 1:3 mix of saline (L. B. Thien, F. Utech, The mode of pollination in Habenaria obtusata (Orchidaceae). American Journal of Botany 57, 1031-1035 (1970) and electrode gel (Parker Laboratories, Fairfield, N.J., USA) in order to avoid the preparation to desiccate during the experiment. The head was mounted by the neck on the reference electrode. The preparation was then moved to the GC-EAD with the tips of the antennae inserted under the microscope (Optiphot-2, Nikon, Tokyo, Japan) into a recording electrode, that was identical to the reference electrode. The mounted antennae were oriented at 90° from the main airline which was carrying filtered air (Praxair, Danbury, Conn., USA) and volatiles eluting from the Gas-Chromatograph to the preparation via a 200° C. transfer line (EC-05; Syntech GmbH, Buchenbach, Germany). Five microliters of the orchid extract were injected into the Gas Chromatograph with Flame Ionization Detection (Agilent 7820A GC, Agilent Technologies; DB5 column, J&W Scientific, Folsom, Calif., USA). The oven program was the same as the one used for the GC-MS analyses of the scent extracts. The transfer line from the GC to the preparation was set to 200° C.
# [1] = system: Ae. increpitus mosquito antennal lobe (AL) glomeruli; experiment: Two-photon calcium imaging (Fluo4) of the antennal lobe, Ae. increpitus; type: in vivo; conditions: for LC2 glomerulus response: single odorants
# Description: Odor-evoked responses in the Ae. increpitus mosquito antennal lobe (AL) with nine female mosquitoes at the beginning of the season when mosquitoes were relatively young (as defined by wing and scale appearance). Calcium imaging experiments were conducted using application of the calcium indicator Fluo4 to the mosquito brain and using a stage that allows simultaneous calcium imaging and tethered flight. The mosquito was cooled on ice and transferred to a Peltier-cooled holder that enables the mosquito to head to be fixed to the stage using ultraviolet glue. The custom stage permits the superfusion of saline to the head capsule and space for movement by the wings and proboscis. Once the mosquito was fixed to the stage, a window in its head was cut to expose the brain, and the brain was continuously superfused with physiological saline. Next, the perineural sheath was gently removed from the AL using fine forceps and 75 μL of the Fluo4 solution—made by […] of Fluo4 in 30 μL Pluronic F-127 and then subsequently diluted in 950 μL of mosquito physiological saline—was pipetted to the holder allowing the brain to be completely immersed in the dye. Mosquitoes were kept in the dark at 15° C. for 1.5 h (the appropriate time for adequate penetration of the dye into the tissue), after which the brain was washed 3 times with physiological saline. After the rinse, mosquitoes were kept in the dark at room temperature for approximately 10-20 min. before imaging.
# Wing stroke amplitudes were acquired and analyzed using a custom camera-based computer vision system at frame rates of 100 Hz, where the mosquito was illuminated with infrared LEDs (880 nm) and images were collected with an infrared-sensitive camera synched to the two-photon system. Stimulus-evoked initiation of flight and changes in the amplitude of the wing-stroke envelope were characterized for each odor stimulus. Calcium-evoked responses in the AL were imaged using the Prairie Ultima IV two-photon excitation microscope (Prairie Technologies) and Ti-Sapphire laser (Chameleon Ultra; Coherent). Experiments were performed at a depth of 40 μm from the ventral surface of the AL, allowing the calcium dynamics from approximately 18-22 glomeruli to be repeatedly imaged across preparations. Images were collected at 2 Hz, and for each odor stimulus images were acquired for 35 s, starting 10 s before the stimulus onset. Imaging data were extracted in Fiji/ImageJ and imported into Matlab (v2017; Mathworks, Natick, Mass.) for Gaussian filtering (2×2 pixel; σ=1.5-3) and alignment using a single frame as the reference at a given imaging depth and subsequently registered to every frame to within ¼ pixel. Trigger-averaged ΔF/F was used for comparing glomerular responses between odor stimuli. […]
# Culiseta mosquitoes = experiment: GC-EAD antennal responses, Culiseta mosquitoes; parameters: species or system Culiseta sp.; conditions: peaks of the P. obtusata scent
# Excerpt: as §1
# Individual mosquitoes were isolated in Falcon™ tubes (Thermo Fisher Scientific, Pittsburgh, Pa., USA) covered with a piece of fine mesh. They were maintained in a climatic chamber, as previously described, and identified immediately before running the experiment. […]
# [2] = scents of P. stricta and P. huronensis, Ae. increpitus, Ae. communis, Ae. canadensis and Culiseta sp.
# [3] = odorant tuning used for glomerular registration
compound,measurement,setting,value
"CCN(CC)C(=O)c1cccc(C)c1 [DEET, N,N-diethyl-meta-toluamide, reference compound]",AM2 response with increasing dose,Ae. aegypti AL glomeruli,significant increases in response with increasing dose
same,AM2 glomerulus response,Ae. aegypti AL glomeruli,responsive
C=CC(C)(O)CCC=C(C)C (racemic) [linalool],antennal responses (GC-EAD),Aedes mosquitoes; [2],all responded
"O=C=O [CO2, reference compound]",MD2 glomerulus response,Ae. aegypti AL glomeruli; [3],responsive
"C[C@H](NC[C@H](O)CP(=O)(O)CC1CCCCC1)c1ccc(Cl)c(Cl)c1 [CGP54626, reference compound]",effect of GABA-receptor antagonists on AM2 response to the P. obtusata scent,Ae. aegypti AL glomeruli,the effect of nonanal was blocked
same,effect of GABA-receptor antagonists on LC2 and AM2 responses to the P. stricta scent,Ae. aegypti AL glomeruli,blocked the symmetrical inhibition by nonanal and lilac aldehyde
picrotoxin [reference compound],effect of GABA-receptor antagonists on AM2 response to the P. obtusata scent,Ae. aegypti AL glomeruli,the effect of nonanal was blocked
same,effect of GABA-receptor antagonists on LC2 and AM2 responses to the P. stricta scent,Ae. aegypti AL glomeruli,blocked the symmetrical inhibition by nonanal and lilac aldehyde
"C=CC1(C)CCC(C(C)C=O)O1 (centres unmarked) [lilac aldehyde, 5-dimethyl-5-ethenyl-2-tetrahydrofuranacetaldehydes]",antennal responses (GC-EAD),"Aedes mosquitoes; high concentration in the scent of P. stricta, lesser in P. huronensis, antennae of Ae. increpitus and Ae. communis",relatively strong responses
same,antennal responses (GC-EAD),Aedes mosquitoes; peaks of the P. obtusata scent,evoked antennal responses
same,antennal responses (GC-EAD),Aedes mosquitoes; [2],all responded
same,AM2 response with increasing dose,Ae. aegypti AL glomeruli,significant increases in response with increasing dose
same,glomerular responses in the AL,Ae. aegypti AL glomeruli,strong responses
same,AM2 response to lilac aldehyde/nonanal mixtures,Ae. aegypti AL glomeruli,increased AM2 activation
same,LC2 response to lilac aldehyde/nonanal mixtures,Ae. aegypti AL glomeruli,suppressed the response of LC2 to nonanal
same,AM2 glomerulus response to orchid mixtures,"Ae. aegypti AL glomeruli; mixtures with lilac aldehyde scaled to other Platanthera species, compared with P. obtusata, Kruskal-Wallis p<0.05",significant increase in AM2 responses
same,LC2 glomerulus response to orchid mixtures,"Ae. aegypti AL glomeruli; mixtures with lilac aldehyde scaled to other Platanthera species, nonanal as in the P. obtusata mixture, Kruskal-Wallis p<0.05",significant suppression of LC2 response
same,AM2 glomerulus response,Ae. aegypti AL glomeruli,strongest response; also recorded: responsive
"CC1CCCC2(C)CCCCC12O (centres unmarked) [geosmin, reference compound]",PD3 glomerulus response,Ae. aegypti AL glomeruli; [3],responsive
CCCCCCCCC=O [nonanal],antennal responses (GC-EAD),Aedes mosquitoes; peaks of the P. obtusata scent,evoked antennal responses; also recorded: consistent responses and one of the strongest relative responses
same,antennal responses (GC-EAD),Aedes mosquitoes; [2],all responded
same,AM2 glomerulus response,[1]; odor stimulation,often exhibited inhibition
same,LC2 glomerulus response,[1],strongest response
same,antennal responses (GC-EAD),Culiseta mosquitoes,very little response
same,glomerular responses in the AL,Ae. aegypti AL glomeruli,strong responses
same,AM2 response to lilac aldehyde/nonanal mixtures,Ae. aegypti AL glomeruli,caused suppression of AM2 responses to lilac aldehyde
same,LC2 response to lilac aldehyde/nonanal mixtures,Ae. aegypti AL glomeruli,increasing the activation of LC2
same,AM2 glomerulus response,Ae. aegypti AL glomeruli,often exhibited inhibition
same,AL3 glomerulus response,Ae. aegypti AL glomeruli; [3],responsive
same,LC2 glomerulus response,Ae. aegypti AL glomeruli,responsive; also recorded: strongest response
C=C1C2CCC(C2)C1(C)C (centres unmarked) [camphene],antennal responses (GC-EAD),Aedes mosquitoes; peaks of the P. obtusata scent,evoked antennal responses
C=C1CCC2CC1C2(C)C (stereo not drawn) [β-pinene],antennal responses (GC-EAD),Aedes mosquitoes; peaks of the P. obtusata scent,evoked antennal responses
C=CC(=C)CCC=C(C)C [β-myrcene],antennal responses (GC-EAD),Aedes mosquitoes; [2],all responded
CCCCCCCCO [1-octanol],LC2 glomerulus response,[1],strongest response
same,LC2 glomerulus response,Ae. aegypti AL glomeruli,strongest response
CCCCCCCC=O [octanal],antennal responses (GC-EAD),Aedes mosquitoes; peaks of the P. obtusata scent,evoked antennal responses
same,LC2 glomerulus response,[1],strongest response
same,glomerular responses in the AL,Ae. aegypti AL glomeruli,strong responses
same,LC2 glomerulus response,Ae. aegypti AL glomeruli,strongest response
CC1=CCC2CC1C2(C)C (stereo not drawn) [α-pinene],antennal responses (GC-EAD),Aedes mosquitoes; peaks of the P. obtusata scent,evoked antennal responses
O=Cc1ccccc1 [benzaldehyde],antennal responses (GC-EAD),Aedes mosquitoes; [2],all responded
